“Also recorded” adds a separate entry of the source.
How the values were obtained:
α-amylase = assay: Effect of noble gases on α-amylase reaction; type: biochemical, Bacillus licheniformis; conditions: generally observed
From the text: PNPG7 is p-nitrophenyl-α-D-maltoheptaoside.
1. Reaction Principle: [drawing 3] 2.

glucose isomerase [1] = molecular target: T1, glucose isomerase (Streptomyces murinus, UniProt P37031); assay: Effect of gases on glucose isomerase reaction (vial runs, general statements); type: biochemical; conditions: for order of enhancing effect: glucose isomerase, generally observed
T1 construct: purchased Novo Sweetzyme T
Method: Two sets of 125 ml serum vials are prepared for each studied gas, one containing the glucose substrate solution (80 ml per vial) and the other one containing Sweetzyme T (5 g dry/vial).
On day D, place the substrate vials into a shaking water bath (60° C., 140 rpm). Allow them to equilibrate in temperature. For each substrate vial, fill a 60 cc B-D syringe with the appropriate gas or gas mixture and inject it in the vial. Remove the substrate vial from the shaker bath and replace it with the corresponding enzyme vial. Allow the positive pressure in the substrate vial to fill the syringe with glucose solution up to 60 ml. Stopper syringe needle with a septum. Repeat this procedure for each vial. When all the substrate vials have been sampled, inject the content of each syringe (60 ml of gas-saturated glucose solution) into the corresponding enzyme vial. The enzyme vials are injected at 2 minute intervals. The time of the injection determine t0 for each vial.
The respective concentrations of glucose and fructose in the samples are determined by High Pressure Liquid Chromatography.

amyloglucosidase = molecular target: T2, amyloglucosidase (Aspergillus niger, UniProt P69328); assay: Effect of noble gases on amyloglucosidase reaction; type: biochemical; conditions: amylyoglucoside (so in the source), generally observed
T2 construct: purchased Sigma Chemical A-7420
From the text: 1. Reaction Principle: [drawing 3] 2. Solution Preparation:

glucose isomerase [2] = molecular target: T1, glucose isomerase; assay: Glucose isomerase column runs under gas saturation (Example 7); type: biochemical; conditions: for reaching point of equilibrium (fructose to glucose vs glucose to fructose conversion): 100 hr run, gas saturated columns, FIG. 13; for averages of fructose to glucose and glucose to fructose conversions: averages for each gas, FIG. 15; for conversion of glucose to fructose (activity+flow rate difference): lower flow rate, under Ne, Ar and N2, FIG. 11
Method: A comprehensive experiment was undertaken in order to relate the effects of noble gases upon the important process parameters of temperature, flow rate, enzyme activity and reaction equilibrium. In this experiment, four identical jacketed 1.6×35 cm (70 cc bed volume) columns containing 15 grams dry weight (40 cc bed volume) of the glucose isomerase packing used in the Vial. Runs were prepared according to the protocol outlined above. The columns and substrates were saturated with the gas of interest from a choice of argon, neon, nitrogen, krypton, xenon, helium, or a decile combination of any two or three of these.
One column was run at 0.2 ml/min at 50°, one at 0.2 ml/min at 60°, one at 0.5 ml/min at 50°, and one at 0.5 ml/min at 60°. […] During the first set of experiments, glucose feedstock (as prepared above) was used. During the second set, fructose feedstock of identical concentration was used to analyze the reverse reaction.
Data collected included flow rate, % glucose, % fructose, quantitative evaluation of fructose and glucose, dry solids, temperature, and residual gases.
Comparison of the data for each combination of experiments allows the determination of the effect of the gas, the temperature, the flow rate, the enzyme activity, and the reaction equilibrium. These are each determined independently, then the contribution of each parameter to the others can be calculated. For instance, elevating the temperature increases the flow rate, while lowering temperature and increasing the flow rate maximizes gas effects.

[3] = tested on: amylase, amyloglucosidase and glucose isomerase; assay: Enzymatic reaction enhancement in the HFCS process (all three enzymes); type: biochemical
From the text: Generally, in accordance with the present invention, enzymatic reaction enhancements measured in terms of either rate of yield or stability parameters, and are relative to reactions conducted in air or with no added gases, or to reactions run with added nitrogen, or to a combination of the above. Depending upon the relative controls, enhancements of rate between about 0 and 20% and yield enhancements of about 0 to 5% for glucose isomerase have been obtained.

Gas solubility = type: physicochemical

T1 sequence (P37031 whole entry): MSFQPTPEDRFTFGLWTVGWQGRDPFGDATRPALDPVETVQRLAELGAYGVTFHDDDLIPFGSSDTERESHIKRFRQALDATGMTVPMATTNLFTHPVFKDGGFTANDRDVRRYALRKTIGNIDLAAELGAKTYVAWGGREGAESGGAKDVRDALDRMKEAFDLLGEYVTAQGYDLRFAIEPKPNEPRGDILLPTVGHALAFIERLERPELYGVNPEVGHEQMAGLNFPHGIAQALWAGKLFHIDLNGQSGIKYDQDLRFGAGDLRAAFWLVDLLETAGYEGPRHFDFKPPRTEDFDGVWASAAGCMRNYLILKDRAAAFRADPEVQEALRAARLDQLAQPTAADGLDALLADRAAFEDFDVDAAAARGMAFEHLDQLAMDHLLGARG
T2 sequence (P69328 25-640): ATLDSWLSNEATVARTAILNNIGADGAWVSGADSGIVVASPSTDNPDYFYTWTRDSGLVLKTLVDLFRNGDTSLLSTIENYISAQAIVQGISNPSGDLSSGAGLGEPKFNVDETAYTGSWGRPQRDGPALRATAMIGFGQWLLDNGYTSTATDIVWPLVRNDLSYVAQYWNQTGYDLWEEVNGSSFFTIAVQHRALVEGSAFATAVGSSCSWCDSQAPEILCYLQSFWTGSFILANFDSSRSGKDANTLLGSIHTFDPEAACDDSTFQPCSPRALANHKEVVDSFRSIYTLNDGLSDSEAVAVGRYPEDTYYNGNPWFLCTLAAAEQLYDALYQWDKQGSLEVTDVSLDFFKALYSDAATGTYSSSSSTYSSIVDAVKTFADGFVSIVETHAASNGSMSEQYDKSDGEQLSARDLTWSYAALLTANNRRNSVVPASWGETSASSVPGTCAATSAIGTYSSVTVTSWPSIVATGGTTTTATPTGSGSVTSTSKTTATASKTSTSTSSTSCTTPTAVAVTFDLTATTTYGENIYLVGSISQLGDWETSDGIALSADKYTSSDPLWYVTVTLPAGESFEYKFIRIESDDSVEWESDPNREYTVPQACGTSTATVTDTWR

Row | SMILES | order of enhancing effect (α-amylase) | order of enhancing effect (glucose isomerase [1]) | order of enhancing effect (amyloglucosidase) | reaching point of equilibrium (fructose to glucose vs glucose to fructose conversion) (glucose isomerase [2]) | averages of fructose to glucose and glucose to fructose conversions (glucose isomerase [2]) | conversion of glucose to fructose (activity+flow rate difference) (glucose isomerase [2]) | effectiveness in enhancing enzymatic activity [3] | solubility (Gas solubility) | inhibition of glucose isomerase / Sweetzyme T activity (glucose isomerase [1])
1 | [Ar] [argon] | Xe>Ar>Ne>Kr>He | Ne>Ar>Kr>Xe>He | Xe>Ar>Ne>Kr>He | reach equilibrium before nitrogen saturated columns | improvement | highest conversion |  |  | 
2 | [Ne] [neon] | Xe>Ar>Ne>Kr>He | Ne>Ar>Kr>Xe>He | Xe>Ar>Ne>Kr>He | reach equilibrium before nitrogen saturated columns | improvement | significant but lesser enhancement over nitrogen |  |  | 
3 | [Kr] [krypton] | Xe>Ar>Ne>Kr>He | Ne>Ar>Kr>Xe>He | Xe>Ar>Ne>Kr>He |  |  |  |  |  | 
4 | [He] [helium] | Xe>Ar>Ne>Kr>He | Ne>Ar>Kr>Xe>He | Xe>Ar>Ne>Kr>He |  |  |  | effective | low solubility | 
5 | O=O [oxygen] |  |  |  |  |  |  |  |  | greatly inhibited; also recorded: inhibitor
6 | [Xe] [xenon] | Xe>Ar>Ne>Kr>He | Ne>Ar>Kr>Xe>He | Xe>Ar>Ne>Kr>He |  |  |  |  |  | 

Source: US5512464A, “Method of producing high fructose corn syrup from glucose using noble gases” (American Air Liquide, priority 1994, dated 1996)
